In ChEMBL document CHEMBL1158635, “Antitrypanosomal alkaloids from Polyalthia suaveolens (Annonaceae): their effects on three selected glycolytic enzymes of Trypanosoma brucei” (Bioorg Med Chem Lett, 2010):
Values belong to the compound of their own block, whether it stands above or below them. Calls of active or inactive are those of the source. No cut-off for these calls is given here.

Tests used:
[1] = target: T1, ATP-dependent 6-phosphofructokinase (Trypanosoma brucei, UniProt O15648); assay: Competitive reversible inhibition of Trypanosoma brucei PFK expressed in Escherichia coli using fructose-6-phosphate by spectrophotometry analysis
T1 sequence (O15648 whole entry): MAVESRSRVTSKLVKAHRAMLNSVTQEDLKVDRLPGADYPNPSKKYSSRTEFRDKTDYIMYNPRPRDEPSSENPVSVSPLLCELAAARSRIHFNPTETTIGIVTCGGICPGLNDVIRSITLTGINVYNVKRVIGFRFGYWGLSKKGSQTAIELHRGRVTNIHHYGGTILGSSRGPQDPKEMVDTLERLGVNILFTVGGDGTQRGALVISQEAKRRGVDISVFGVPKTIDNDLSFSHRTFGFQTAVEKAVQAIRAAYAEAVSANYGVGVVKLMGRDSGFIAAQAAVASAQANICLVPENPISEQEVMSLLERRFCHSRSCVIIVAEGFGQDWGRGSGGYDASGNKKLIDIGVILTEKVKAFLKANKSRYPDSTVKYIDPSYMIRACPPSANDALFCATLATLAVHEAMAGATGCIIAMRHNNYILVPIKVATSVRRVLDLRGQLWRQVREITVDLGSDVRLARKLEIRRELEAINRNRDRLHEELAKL

[2] = target: T2, ATP-dependent 6-phosphofructokinase (Trypanosoma brucei) (UniProt O15648); assay: Ratio of Ki/Km for Trypanosoma brucei PFK expressed in Escherichia coli using fructose-6-phosphate by spectrophotometry analysis
T2 sequence (whole entry): T1 sequence (O15648 whole entry)

MRC5 = assay: Cytotoxicity against human MRC5 cells after 72 hrs by Alamar blue staining; format: cell-based; settings: mrc5, 72 h
[3] = target: Glyceraldehyde-3-phosphate dehydrogenase (Oryctolagus cuniculus) (UniProt P46406); assay: Inhibition of rabbit muscle GAPDH at 3000 uM
[4] = Inhibition of Trypanosoma brucei GAPDH expressed in Escherichia coli
[5] = system: Trypanosoma brucei brucei; assay: Antitrypanosomal activity against Trypanosoma brucei brucei 427 bloodstream form after 72 hrs by LILIT method; format: functional; settings: for EC50: Trypanosoma brucei, 427, 72 h, read-out: ED50 (the source's name)
[6] = target: T3, ATP-dependent 6-phosphofructokinase, muscle type (Oryctolagus cuniculus) (UniProt P00511); assay: Inhibition of rabbit muscle PFK at 170 uM
T3 sequence (whole entry): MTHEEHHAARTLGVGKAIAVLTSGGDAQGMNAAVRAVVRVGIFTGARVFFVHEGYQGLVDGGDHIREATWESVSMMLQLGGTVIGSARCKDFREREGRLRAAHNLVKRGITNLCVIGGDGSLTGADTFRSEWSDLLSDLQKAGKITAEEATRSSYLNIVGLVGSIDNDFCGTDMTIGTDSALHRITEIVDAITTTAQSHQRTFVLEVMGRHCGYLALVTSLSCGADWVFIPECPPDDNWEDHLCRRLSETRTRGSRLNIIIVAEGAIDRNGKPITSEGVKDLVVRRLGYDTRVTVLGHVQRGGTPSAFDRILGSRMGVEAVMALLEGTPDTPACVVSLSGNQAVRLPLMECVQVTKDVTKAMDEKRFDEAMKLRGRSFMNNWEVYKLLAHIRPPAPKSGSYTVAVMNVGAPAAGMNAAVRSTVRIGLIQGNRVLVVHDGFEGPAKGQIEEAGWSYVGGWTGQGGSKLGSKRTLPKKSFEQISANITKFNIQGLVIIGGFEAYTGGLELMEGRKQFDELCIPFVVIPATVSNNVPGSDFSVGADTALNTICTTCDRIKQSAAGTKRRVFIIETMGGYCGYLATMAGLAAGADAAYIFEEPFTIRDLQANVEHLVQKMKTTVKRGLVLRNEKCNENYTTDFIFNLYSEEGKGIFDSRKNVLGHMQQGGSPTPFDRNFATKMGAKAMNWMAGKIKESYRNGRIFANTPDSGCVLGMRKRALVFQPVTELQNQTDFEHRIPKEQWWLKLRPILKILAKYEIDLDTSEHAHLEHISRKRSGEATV

Trypanosoma brucei [7] = assay: Inhibition of Trypanosoma brucei aldolase expressed in Escherichia coli at 100 uM
[8] = target: T4, Fructose-bisphosphate aldolase A (Oryctolagus cuniculus, UniProt P00883); assay: Inhibition of rabbit muscle aldolase
T4 sequence (P00883 whole entry): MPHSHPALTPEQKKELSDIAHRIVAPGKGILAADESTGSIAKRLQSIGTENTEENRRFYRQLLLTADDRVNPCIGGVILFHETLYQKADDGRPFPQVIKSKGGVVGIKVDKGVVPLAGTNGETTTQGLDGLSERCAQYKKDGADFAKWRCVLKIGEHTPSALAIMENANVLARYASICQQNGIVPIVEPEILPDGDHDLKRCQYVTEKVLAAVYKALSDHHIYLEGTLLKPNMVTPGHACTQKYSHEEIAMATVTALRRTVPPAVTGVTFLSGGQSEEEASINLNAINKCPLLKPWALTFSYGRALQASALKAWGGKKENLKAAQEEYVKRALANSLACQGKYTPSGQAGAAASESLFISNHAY

[9] = target: T1, ATP-dependent 6-phosphofructokinase; assay: Inhibition of Trypanosoma brucei PFK expressed in Escherichia coli
[10] = target: T5, Fructose-bisphosphate aldolase A (Oryctolagus cuniculus) (UniProt P00883); assay: Inhibition of rabbit muscle aldolase at 280 uM
T5 sequence (whole entry): T4 sequence (P00883 whole entry)

[11] = target: T3, ATP-dependent 6-phosphofructokinase, muscle type (Oryctolagus cuniculus); assay: Inhibition of rabbit muscle PFK at 690 uM
Trypanosoma brucei [12] = assay: Inhibition of Trypanosoma brucei aldolase expressed in Escherichia coli at 140 uM
[13] = target: Glyceraldehyde-3-phosphate dehydrogenase (Oryctolagus cuniculus) (UniProt P46406); assay: Inhibition of rabbit muscle GAPDH at 69 uM
Trypanosoma brucei [14] = assay: Inhibition of Trypanosoma brucei GAPDH expressed in Escherichia coli at 278 uM
[15] = target: T2, ATP-dependent 6-phosphofructokinase (Trypanosoma brucei); assay: Inhibition of Trypanosoma brucei PFK expressed in Escherichia coli at 690 uM
[16] = target: Glyceraldehyde-3-phosphate dehydrogenase (Oryctolagus cuniculus, UniProt P46406); assay: Inhibition of rabbit muscle GAPDH
[17] = target: T3, ATP-dependent 6-phosphofructokinase, muscle type (Oryctolagus cuniculus); assay: Inhibition of rabbit muscle PFK at 94 uM
[18] = Inhibition of Trypanosoma brucei aldolase expressed in Escherichia coli
[19] = Selectivity ratio of IC50 for rabbit muscle aldolase to IC50 for Trypanosoma brucei aldolase; format: tissue-based; settings: Muscle tissue
[20] = Mixed-type reversible inhibition of Trypanosoma brucei GAPDH expressed in Escherichia coli using NAD+ by spectrophotometry analysis
[21] = target: T3, ATP-dependent 6-phosphofructokinase, muscle type (Oryctolagus cuniculus); assay: Inhibition of rabbit muscle PFK at 500 uM
[22] = Mixed-type reversible inhibition of Trypanosoma brucei GAPDH expressed in Escherichia coli at enzyme substrate complex by spectrophotometry analysis

Glyceraldehyde-3-phosphate dehydrogenase (Oryctolagus cuniculus), sequence (P46406 whole entry, looked up): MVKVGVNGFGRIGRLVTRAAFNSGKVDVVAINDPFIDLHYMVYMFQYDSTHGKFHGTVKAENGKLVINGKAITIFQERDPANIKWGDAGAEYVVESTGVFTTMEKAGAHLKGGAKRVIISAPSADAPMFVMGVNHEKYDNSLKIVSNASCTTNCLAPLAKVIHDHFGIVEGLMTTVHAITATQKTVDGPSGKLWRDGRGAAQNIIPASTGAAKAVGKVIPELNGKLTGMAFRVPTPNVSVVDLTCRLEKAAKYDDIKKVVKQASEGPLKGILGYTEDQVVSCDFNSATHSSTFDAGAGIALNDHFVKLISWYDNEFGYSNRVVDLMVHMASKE
Glyceraldehyde-3-phosphate dehydrogenase, sequence (P46406 whole entry): as the sequence (P46406 whole entry, looked up) above

SMILES: CC1(C)C(=O)CC[C@@]2(C)[C@H]1CC[C@]1(C)[C@H]2Cc2cc3ccccc3n21 [POLYSIN]
Ki [1]: 9 µM
Ki/Km [2]: 0.05
Activity (MRC5): Toxic

SMILES: CC1(C)C(=O)CC[C@]2(C)C3Cc4cc5ccccc5n4[C@]3(C)CC[C@@H]12 (stereo partly specified)
inhibition [3]: inactive
Ki [1]: 10 µM
IC50 [4]: 1050 µM
EC50 [5]: 18 µM
inhibition [6]: 18%
inhibition (Trypanosoma brucei [7]): 8%
IC50 [8]: 87 µM
IC50 [9]: 20 µM

SMILES: CC1(C)C(=O)CC[C@]2(C)[C@H]3Cc4cc5ccccc5n4[C@]3(C)CC[C@@H]12
Ki/Km [2]: 0.05
Activity (MRC5): Toxic

SMILES: Nc1nc(N)nc(Nc2ccc([As]3SCC(CO)S3)cc2)n1 (stereo unspecified) [MELARSOPROL]
EC50 [5]: 0.00395 µM

Continued, in another order:

EC50 [5]: 32 µM
inhibition [10]: inactive
inhibition [11]: 12%
inhibition (Trypanosoma brucei [12]): 11%
inhibition [13]: 10%
inhibition (Trypanosoma brucei [14]): 10%
inhibition [15]: 28%
SMILES: CC(=O)N1c2ccccc2[C@H]2[C@@H]1C[C@@H]1[C@@]2(C)CC[C@H]2C(C)(C)[C@H](O)CC[C@]12C
Activity (MRC5): Toxic

IC50 [16]: 2050 µM
IC50 [8]: 150 µM
inhibition [17]: 16%
IC50 [9]: 170 µM
SMILES: CC(=O)O[C@H]1CC[C@]2(C)[C@H]3Cc4cc5ccccc5n4[C@]3(C)CC[C@H]2C1(C)C
IC50 [4]: 110 µM
ED50 [5]: inactive
Activity (MRC5): Toxic
IC50 [18]: 0.5 µM

Ratio IC50 [19]: 3
EC50 [5]: 54 µM
IC50 [16]: 620 µM
IC50 [8]: 270 µM
inhibition [21]: inactive
IC50 [9]: 30 µM
SMILES: CC1(C)[C@H](O)CC[C@]2(C)[C@@H]3C[C@@H]4Nc5ccccc5[C@@H]4[C@]3(C)CC[C@@H]12 [POLYVEOLINE]
IC50 [4]: 110 µM
Activity (MRC5): Toxic
Ki [20]: 18 µM
IC50 [18]: 80 µM
Ki [22]: 50 µM
